Experimental data: the SangsterLogP compilation

test: method code SF-AS, from DOI: 10.1016/0014-5793(90)81139-f, PMID: 2387393; settings: pH 2.0

Row | SMILES | logD
1 | CC1=CC(=O)C=C(Br)C1=O | 1.21
2 | COC1=C(OC)C(=O)C(C)=C(C)C1=O | 1.26
3 | COc1cc(O)cc(OC)c1O | 0.17
4 | Cc1cc(O)c(C)c(C)c1O | 1.69
5 | CC1=CC(=O)C=CC1=O | 0.67
6 | COc1c(O)c(OC)c(OC)c(O)c1OC | 0.39
7 | COc1c(O)cc(C)c(O)c1OC | 1.02
8 | COc1c(O)c(C)c(C)c(O)c1OC | 1.6
9 | COC1=CC(=O)C=C(OC)C1=O | -0.05
10 | COc1cc(O)ccc1O | 0.47
11 | COC1=CC(=O)C=CC1=O | 0.27
12 | Cc1cc(O)cc(Br)c1O | 1.38
